Source: patent publication US11142529B2 (priority 2013, dated 2021)
“Also recorded” adds a separate entry of the source. Where two headings read alike, the source gives them in different places.

Assays:
GABAAα5 receptor = biological target: T1, GABAAα5 receptor (Rattus norvegicus, UniProt P18508+P19969); assay: GABAA α5 receptor occupancy with Ro 15-4513 tracer (Example 107B); type: in vivo, Long Evans rats
T1 construct: occupancy in the hippocampus (a region of high GABAAα5 receptor density); from tissue; host or cells: rat brain in vivo; hippocampus versus cerebellum
T1 sequence (P19969 32-464 limits assumed): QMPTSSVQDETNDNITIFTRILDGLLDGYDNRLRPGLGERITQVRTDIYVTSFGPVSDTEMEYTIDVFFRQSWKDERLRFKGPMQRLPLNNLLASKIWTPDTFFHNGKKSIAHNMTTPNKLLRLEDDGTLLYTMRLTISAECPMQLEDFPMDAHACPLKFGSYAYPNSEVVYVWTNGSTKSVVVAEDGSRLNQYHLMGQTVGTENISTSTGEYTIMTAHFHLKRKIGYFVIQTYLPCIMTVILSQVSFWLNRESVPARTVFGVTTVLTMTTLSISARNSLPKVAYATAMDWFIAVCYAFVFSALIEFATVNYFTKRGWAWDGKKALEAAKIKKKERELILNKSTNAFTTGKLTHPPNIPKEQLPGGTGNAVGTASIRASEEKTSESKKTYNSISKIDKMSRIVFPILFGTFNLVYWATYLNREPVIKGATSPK
T1 sequence (P18508 39-466): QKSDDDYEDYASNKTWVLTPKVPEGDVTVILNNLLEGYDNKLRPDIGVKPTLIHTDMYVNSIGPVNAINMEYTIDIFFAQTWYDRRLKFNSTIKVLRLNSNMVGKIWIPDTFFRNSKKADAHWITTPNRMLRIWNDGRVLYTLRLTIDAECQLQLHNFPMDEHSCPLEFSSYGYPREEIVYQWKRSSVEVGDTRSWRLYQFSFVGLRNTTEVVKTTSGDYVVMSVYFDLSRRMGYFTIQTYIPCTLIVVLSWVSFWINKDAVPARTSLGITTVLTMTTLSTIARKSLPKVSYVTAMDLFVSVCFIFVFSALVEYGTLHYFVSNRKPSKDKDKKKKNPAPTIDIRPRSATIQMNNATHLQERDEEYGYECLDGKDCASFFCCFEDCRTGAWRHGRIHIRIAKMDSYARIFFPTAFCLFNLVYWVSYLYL
From the text: (§1) Food and water were available ad libitum.

α5-containing GABAA R = α5-containing GABAA R (Homo sapiens, UniProt P18507+P31644); conditions: cited from earlier work
Chain of α5-containing GABAA R (P31644 32-462): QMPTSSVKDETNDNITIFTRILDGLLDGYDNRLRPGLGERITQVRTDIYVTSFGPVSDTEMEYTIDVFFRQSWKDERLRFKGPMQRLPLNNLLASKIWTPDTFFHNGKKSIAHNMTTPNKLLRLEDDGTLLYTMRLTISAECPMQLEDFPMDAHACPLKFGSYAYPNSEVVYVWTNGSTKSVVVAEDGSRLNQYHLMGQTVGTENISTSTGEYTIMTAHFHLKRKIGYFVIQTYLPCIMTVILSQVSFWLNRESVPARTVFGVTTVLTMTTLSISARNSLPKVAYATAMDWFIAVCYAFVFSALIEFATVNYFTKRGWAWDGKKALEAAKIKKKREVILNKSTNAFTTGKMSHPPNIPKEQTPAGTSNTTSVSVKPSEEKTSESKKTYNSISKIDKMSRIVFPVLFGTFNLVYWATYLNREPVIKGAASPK
Chain of α5-containing GABAA R (P28472 26-473 partner): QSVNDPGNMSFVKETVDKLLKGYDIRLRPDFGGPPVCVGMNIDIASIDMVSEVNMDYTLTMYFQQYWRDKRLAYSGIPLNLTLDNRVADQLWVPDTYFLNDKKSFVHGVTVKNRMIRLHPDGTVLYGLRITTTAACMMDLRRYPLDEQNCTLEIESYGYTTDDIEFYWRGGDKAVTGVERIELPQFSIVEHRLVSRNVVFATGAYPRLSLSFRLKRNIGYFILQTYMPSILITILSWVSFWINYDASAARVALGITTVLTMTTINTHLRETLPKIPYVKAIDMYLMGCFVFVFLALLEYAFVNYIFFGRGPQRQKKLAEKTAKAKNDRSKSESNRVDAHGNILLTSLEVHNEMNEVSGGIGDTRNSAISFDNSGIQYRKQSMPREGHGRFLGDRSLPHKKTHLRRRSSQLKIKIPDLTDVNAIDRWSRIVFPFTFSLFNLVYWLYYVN
Chain of α5-containing GABAA R (P18507 40-475): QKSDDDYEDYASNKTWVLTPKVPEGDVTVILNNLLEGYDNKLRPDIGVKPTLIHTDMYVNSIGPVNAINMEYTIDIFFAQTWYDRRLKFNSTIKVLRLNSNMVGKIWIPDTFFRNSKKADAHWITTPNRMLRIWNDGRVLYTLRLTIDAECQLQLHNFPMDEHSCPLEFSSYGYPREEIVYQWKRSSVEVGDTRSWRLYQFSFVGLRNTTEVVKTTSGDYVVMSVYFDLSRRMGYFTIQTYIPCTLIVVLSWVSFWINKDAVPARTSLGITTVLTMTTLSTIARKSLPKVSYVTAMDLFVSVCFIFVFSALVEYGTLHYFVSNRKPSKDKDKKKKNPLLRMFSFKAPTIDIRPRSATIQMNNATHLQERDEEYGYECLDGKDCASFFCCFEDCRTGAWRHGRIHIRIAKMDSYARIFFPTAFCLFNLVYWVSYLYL

[1] = type: in vivo, Long Evans rats; conditions: i.v.
Description: as §1
For plasma exposures, blood samples were centrifuged at 14000 rpm for 16 minutes. After centrifuging, 50 ul of supernatant (plasma) from each sample was added to 200 μl of acetonitrile plus 0.1% formic acid. […] Samples were sonicated for 5 minutes in an ultrasonic water bath, followed by centrifugation for 30 minutes, at 16000 RPM. 100 ul of supernatant was removed from each sample vial and placed in a new glass auto sample vial, followed by the addition of 300 μl of sterile water (pH 6.5).

aged-impaired (AI) rats = assay: Radial Arm Maze (RAM) behavioral task, two-hour delay (Example 107A); type: in vivo, rat; conditions: 3 mg/kg ip
Description: The effects of methyl 3,5-diphenylpyridazine-4-carboxylate on the in vivo spatial memory retention of aged-impaired (AI) rats were assessed in a Radial Arm Maze (RAM) behavioral task using vehicle control and four different dosage levels of methyl 3,5-diphenylpyridazine-4-carboxylate (0.1 mg/kg, 0.3 mg/kg, 1 mg/kg and 3 mg/kg, ip). RAM behavioral tasks were performed on eight AI rats. All five treatment conditions (vehicle and four dosage levels) were tested on all eight rats.
The RAM apparatus used consisted of eight equidistantly-spaced arms. An elevated maze arm (7 cm width×75 cm length) projected from each facet of an octagonal center platform (30 cm diameter, 51.5 cm height). Clear side walls on the arms were 10 cm high and were angled at […] to form a trough. A food well (4 cm diameter, 2 cm deep) was located at the distal end of each arm. Froot Loops™ (Kellogg Company) were used as rewards. Blocks constructed of Plexiglas™ (30 cm height×12 cm width) could be positioned to prevent entry to any arm. Numerous extra maze cues surrounding the apparatus were also provided.
The AI rats were initially subjected to a pre-training test (Chappell et al. Neuropharmacology 37: 481-487, 1998). […]

Compound: COC(=O)c1c(-c2ccccc2)cnnc1-c1ccccc1 [methyl 3,5-diphenylpyridazine-4-carboxylate]
- effect on Ro 15-4513 binding in hippocampus (GABAAα5 receptor; 0.01-10 mg/kg, i.v.): blocked the binding; also recorded: dose-dependently reduced
- effect on cerebellum levels of Ro 15-4513 (GABAAα5 receptor; 0.01-10 mg/kg, i.v.): did not affect binding; also recorded: without affecting
- GABAA α5 receptors occupied at exposures behaviorally active in aged-impaired rats (GABAAα5 receptor; hippocampus, FIG. 4): about 32%
- ED50 of receptor occupancy, ratio method (GABAAα5 receptor; i.v.): 1.8 mg/kg
- GABAA α5 receptor occupancy, dose dependence (GABAAα5 receptor; rat, in vivo): dose-dependent increase
- receptor occupancy at 10 mg/kg (GABAAα5 receptor; rat, iv, 10 mg/kg): > 90%
- ED50 (GABAAα5 receptor; rat, iv, read-out: ED50 of receptor occupancy, using L-755,608 to define occupancy): 1.1 mg/kg
- α5 in vitro efficacy (EC20) (α5-containing GABAA R): +27
- increase in hippocampal exposure ([1]; dose from 0.1 to 1 mg/kg): 12 fold
- increase in hippocampal exposure ([1]; dose from 1 to 10 mg/kg): ~5 fold
- increase in plasma exposure ([1]; dose from 1 to 10 mg/kg): 12 fold
- memory performance relative to vehicle control (aged-impaired (AI) rats; t(7)=4.233, p=0.004): significantly improved memory performance
- average no. of errors ± SEM in retention test (aged-impaired (AI) rats; two-hour delay): 1.31±0.40
